Results from ChEMBL document CHEMBL5724914, “Linking interpersonal differences in gut microbiota composition and drug biotransformation activity” (2024).

Tests used:
[1] = The drug is tested on Z-030 corresponding to mouse gut metagenome with ENA study accession number: PRJEB37062 and ENA sample accession number: ERS12561829 for biotransformation under anaerobic condition. The drug concentrations were measured over 9 timepoints collected between 0 and 24 hours of incubation by liquid-chromatography-coupled mass spectrometry (LC–MS); conditions: 2 µM
[2] = The drug is tested on Z-025 corresponding to rabbit gut metagenome with ENA study accession number: PRJEB37062 and ENA sample accession number: ERS12561824 for biotransformation under anaerobic condition. The drug concentrations were measured over 9 timepoints collected between 0 and 24 hours of incubation by liquid-chromatography-coupled mass spectrometry (LC–MS); conditions: 2 µM
[3] = The drug is tested on Z-014 corresponding to rat gut metagenome with ENA study accession number: PRJEB37062 and ENA sample accession number: ERS12561814 for biotransformation under anaerobic condition. The drug concentrations were measured over 9 timepoints collected between 0 and 24 hours of incubation by liquid-chromatography-coupled mass spectrometry (LC–MS); conditions: 2 µM
[4] = The drug is tested on Z-013 corresponding to rabbit gut metagenome with ENA study accession number: PRJEB37062 and ENA sample accession number: ERS12561813 for biotransformation under anaerobic condition. The drug concentrations were measured over 9 timepoints collected between 0 and 24 hours of incubation by liquid-chromatography-coupled mass spectrometry (LC–MS); conditions: 2 µM
[5] = The drug is tested on Z-008 corresponding to metagenome with ENA study accession number: PRJEB37062 and ENA sample accession number: ERS12561808 for biotransformation under anaerobic condition. The drug concentrations were measured over 9 timepoints collected between 0 and 24 hours of incubation by liquid-chromatography-coupled mass spectrometry (LC–MS); conditions: 2 µM
[6] = The drug is tested on WLS-370 corresponding to human gut metagenome with ENA study accession number: PRJEB37062 and ENA sample accession number: ERS12561793 for biotransformation under anaerobic condition. The drug concentrations were measured over 9 timepoints collected between 0 and 24 hours of incubation by liquid-chromatography-coupled mass spectrometry (LC–MS); conditions: 2 µM
[7] = The drug is tested on WLS-090 corresponding to human gut metagenome with ENA study accession number: PRJEB37062 and ENA sample accession number: ERS12561753 for biotransformation under anaerobic condition. The drug concentrations were measured over 9 timepoints collected between 0 and 24 hours of incubation by liquid-chromatography-coupled mass spectrometry (LC–MS); conditions: 2 µM
[8] = The drug is tested on WLS-082 corresponding to human gut metagenome with ENA study accession number: PRJEB37062 and ENA sample accession number: ERS12561751 for biotransformation under anaerobic condition. The drug concentrations were measured over 9 timepoints collected between 0 and 24 hours of incubation by liquid-chromatography-coupled mass spectrometry (LC–MS); conditions: 2 µM
[9] = The drug is tested on WLS-069 corresponding to human gut metagenome with ENA study accession number: PRJEB37062 and ENA sample accession number: ERS12561748 for biotransformation under anaerobic condition. The drug concentrations were measured over 9 timepoints collected between 0 and 24 hours of incubation by liquid-chromatography-coupled mass spectrometry (LC–MS); conditions: 2 µM
[10] = The drug is tested on WLS-027 corresponding to human gut metagenome with ENA study accession number: PRJEB37062 and ENA sample accession number: ERS12561744 for biotransformation under anaerobic condition. The drug concentrations were measured over 9 timepoints collected between 0 and 24 hours of incubation by liquid-chromatography-coupled mass spectrometry (LC–MS); conditions: 2 µM
[11] = The drug is tested on WLS-010 corresponding to human gut metagenome with ENA study accession number: PRJEB37062 and ENA sample accession number: ERS12561743 for biotransformation under anaerobic condition. The drug concentrations were measured over 9 timepoints collected between 0 and 24 hours of incubation by liquid-chromatography-coupled mass spectrometry (LC–MS); conditions: 2 µM
[12] = The drug is tested on WLS-007 corresponding to human gut metagenome with ENA study accession number: PRJEB37062 and ENA sample accession number: ERS12561742 for biotransformation under anaerobic condition. The drug concentrations were measured over 9 timepoints collected between 0 and 24 hours of incubation by liquid-chromatography-coupled mass spectrometry (LC–MS); conditions: 2 µM
[13] = human gut metagenome, 24 h, 2 µM
[14] = human gut metagenome, 24 h, 2 µM; remark: listed apart in the source
[15] = human gut metagenome, 24 h, 2 µM; remark: listed apart in the source
[16] = human gut metagenome, 24 h, 2 µM; remark: listed apart in the source
[17] = human gut metagenome, 24 h, 2 µM; remark: listed apart in the source
[18] = human gut metagenome, 24 h, 2 µM; remark: listed apart in the source
[19] = human gut metagenome, 24 h, 2 µM; remark: listed apart in the source
[20] = human gut metagenome, 24 h, 2 µM; remark: listed apart in the source

Measured: Bacterial Biotransformation
Also: call rule not given here.

CCN(CC)CCOC(=O)C(Cc1cccc2ccccc12)CC1CCCO1.O=C(O)C(=O)O (stereo not given) [NAFRONYL OXALATE]
Compound metabolized: [7] | [8] | [9] | [10] | [11] | [12] | [13] | [14] | [15] | [16] | [17] | [18] | [19] | [20]
Compound NOT metabolized: [1] | [2] | [3] | [4] | [5] | [6]

CCc1nn(CCCN2CCN(c3cccc(Cl)c3)CC2)c(=O)n1CCOc1ccccc1 [NEFAZODONE]
Compound metabolized: [7] | [8] | [9] | [10] | [11] | [12] | [14] | [15] | [16] | [17] | [18] | [19] | [20]
Compound NOT metabolized: [1] | [2] | [3] | [4] | [5] | [6] | [13]

CN1CCOC(c2ccccc2)c2ccccc2C1 (stereo not given) [NEFOPAM]
Compound metabolized: [6] | [7] | [10] | [11] | [12] | [14] | [17] | [18] | [20]
Compound NOT metabolized: [1] | [2] | [3] | [4] | [5] | [8] | [9] | [13] | [15] | [16] | [19]

Cc1ccnc2c1NC(=O)c1cccnc1N2C1CC1 [NEVIRAPINE]
Compound metabolized: [6] | [7] | [12] | [15] | [18] | [20]
Compound NOT metabolized: [1] | [2] | [3] | [4] | [5] | [8] | [9] | [10] | [11] | [13] | [14] | [16] | [17] | [19]

CO[C@]12C[C@@H](COC(=O)c3cncc(Br)c3)CN(C)[C@@H]1Cc1cn(C)c3cccc2c13 [NICERGOLINE]
Compound metabolized: [2] | [3] | [4] | [6] | [7] | [10] | [11] | [18] | [20]
Compound NOT metabolized: [1] | [5] | [8] | [9] | [12] | [13] | [14] | [15] | [16] | [17] | [19]
